Results taken from US20230136600A1, “Method and device for screening antigen epitope polypeptide” (priority 2020, published 2023).

What was measured:
[1] = system: novel coronavirus (live coronavirus), vero cells; assay: In-vitro live virus neutralization experiment with serum of immunized mice (CPE method); type: in vivo, SARS-CoV-2; conditions: Embodiment I: single peptide 100 μg + MF59 at Day 0, 14, 28, Balb/c mice, serum Day 35
Balb/c mice = assay: Polypeptide chip-based vaccine immunogenicity scoring system; type: in vivo; parameters: key to A2: whether the 95 percentile of the last sampling is increased compared with the end point: Y = rise; N = no rise; conditions: for A: 95 percentile grouping number score / B: Mouse performance score: total score = 5
[2] = Embodiment III, polypeptide-KLH
[3] = Embodiment III, polypeptide-KLH, Mix1-10
[4] = Embodiment III, polypeptide-KLH, value of the whole mix
[5] = adjuvant AddaVax, 7 peptides co-immunized in mice
[6] = adjuvant Adju-Phos, 7 peptides co-immunized in mice
[7] = adjuvant Alhydrogel, 7 peptides co-immunized in mice
[8] = adjuvant Imjet Alumn, 7 peptides co-immunized in mice
[9] = adjuvant MA103A, 7 peptides co-immunized in mice
[10] = adjuvant MA103B, 7 peptides co-immunized in mice

For VYDPLQPEL (SARS-CoV-2) [SEQ ID NO:34], the “Neutralizing antibody positive rate (%)” value [1] was 20%, the “A2: whether the 95 percentile of the last sampling is increased compared with the end point” value (Balb/c mice; Embodiment II, Combination 1) was “N” and the “B1: D 0-D 14 95 percentile rise in the number of mice” value (Balb/c mice; Embodiment II, Combination 1) was 5. For the same sequence, the “B2: D 0-D 21 95 percentile rise in the number of mice” value (Balb/c mice; Embodiment II, Combination 1) was 0, the “B3: D 14-D 21 95 percentile rise in the number of mice” value (Balb/c mice; Embodiment II, Combination 1) was 0 and the “B4: D 21-D 28 95 percentile rise in the number of mice” value (Balb/c mice; Embodiment II, Combination 1) was 1. For the same sequence, the Total single peptide (Balb/c mice; Embodiment II, Combination 1, A*3 + B*2 + C*1) was 18.9, the “A: 95 percentile grouping number score” value (Balb/c mice; Embodiment II, Combination 1) was 5 and the “B: Mouse performance score” value (Balb/c mice; Embodiment II, Combination 1) was 1.7. For the same sequence, the “A1: difference between a highest median and a D 0 median (95 percentile)” value (Balb/c mice; Embodiment II, mice immunized with Combination 1) was 0.21, the “B1: D 0-D 14 95 percentile rise in the number of mice” value (Balb/c mice; [2]) was 3 and the “B2: D 0-D 21 95 percentile rise in the number of mice” value (Balb/c mice; [2]) was 3. For the same sequence, the “B3: D 14-D 21 95 percentile rise in the number of mice” value (Balb/c mice; [2]) was 1, the “B4: D 21-D 28 95 percentile rise in the number of mice” value (Balb/c mice; [2]) was 0 and the “A1: difference between a highest median and a D 0 median (95 percentile)” value (Balb/c mice; [3]) was 0.08. The “A2: whether the 95 percentile of the last sampling is increased compared with the end point” value (Balb/c mice; [3]) was “N”, the Total single peptide (Balb/c mice; Embodiment III, polypeptide-KLH, A*3 + B*2 + C*1) was 13.4 and the “A: 95 percentile grouping number score” value (Balb/c mice; [2]) was 3. For the same sequence, the “B: Mouse performance score” value (Balb/c mice; [2]) was 1.7, the “C1: #A timing-sequence response peptide fragment set” value (Balb/c mice; [4]) was 823 and the “C2: #B vaccine specificity peptide fragment set” value (Balb/c mice; [4]) was 398. For the same sequence, the “C3: Intersection of A and B” value (Balb/c mice; [4]) was 7, the “C4: Percentage of the intersection in set B” value (Balb/c mice; [4]) was 1.759 and the “C: Timing-sequence response and specificity score” value (Balb/c mice; [4]) was 1. The “1) 95 percentile grouping number A” value (Balb/c mice; [5]) was 3.5, the “1) 95 percentile grouping number A1” value (Balb/c mice; [5]) was 0.05 and the “2) Mouse performance B” value (Balb/c mice; [5]) was 2.4. For the same sequence, the “2) Mouse performance B1” value (Balb/c mice; [5]) was 4, the “2) Mouse performance B2” value (Balb/c mice; [5]) was 4 and the “2) Mouse performance B3” value (Balb/c mice; [5]) was 1. For the same sequence, the “3) Timing-sequence response and specificity C” value (Balb/c mice; [5]) was 0, the “3) Timing-sequence response and specificity C1” value (Balb/c mice; [5]) was 237 and the “3) Timing-sequence response and specificity C2” value (Balb/c mice; [5]) was 1244. The “3) Timing-sequence response and specificity C3” value (Balb/c mice; [5]) was 0, the “3) Timing-sequence response and specificity C4” value (Balb/c mice; [5]) was 0.000 and the Total single peptide (Balb/c mice; [5]) was 15.3. For the same sequence, the “1) 95 percentile grouping number A” value (Balb/c mice; [6]) was 5, the “1) 95 percentile grouping number A1” value (Balb/c mice; [6]) was 0.08 and the “2) Mouse performance B” value (Balb/c mice; [6]) was 2.5. For the same sequence, the “2) Mouse performance B1” value (Balb/c mice; [6]) was 3, the “2) Mouse performance B2” value (Balb/c mice; [6]) was 4 and the “2) Mouse performance B3” value (Balb/c mice; [6]) was 2. For the same sequence, the “3) Timing-sequence response and specificity C” value (Balb/c mice; [6]) was 0, the “3) Timing-sequence response and specificity C1” value (Balb/c mice; [6]) was 203 and the “3) Timing-sequence response and specificity C2” value (Balb/c mice; [6]) was 1244. The “3) Timing-sequence response and specificity C3” value (Balb/c mice; [6]) was 0, the “3) Timing-sequence response and specificity C4” value (Balb/c mice; [6]) was 0.000 and the Total single peptide (Balb/c mice; [6]) was 20. For the same sequence, the “1) 95 percentile grouping number A” value (Balb/c mice; [7]) was 5, the “1) 95 percentile grouping number A1” value (Balb/c mice; [7]) was 0.06 and the “2) Mouse performance B” value (Balb/c mice; [7]) was 2.6. The “2) Mouse performance B1” value (Balb/c mice; [7]) was 4, the “2) Mouse performance B2” value (Balb/c mice; [7]) was 3 and the “2) Mouse performance B3” value (Balb/c mice; [7]) was 2. For the same sequence, the “3) Timing-sequence response and specificity C” value (Balb/c mice; [7]) was 1, the “3) Timing-sequence response and specificity C1” value (Balb/c mice; [7]) was 123 and the “3) Timing-sequence response and specificity C2” value (Balb/c mice; [7]) was 1244. For the same sequence, the “3) Timing-sequence response and specificity C3” value (Balb/c mice; [7]) was 2, the “3) Timing-sequence response and specificity C4” value (Balb/c mice; [7]) was 0.161 and the Total single peptide (Balb/c mice; [7]) was 20.7. The “1) 95 percentile grouping number A” value (Balb/c mice; [8]) was 5, the “1) 95 percentile grouping number A1” value (Balb/c mice; [8]) was 0.11 and the “2) Mouse performance B” value (Balb/c mice; [8]) was 2.1. The “2) Mouse performance B1” value (Balb/c mice; [8]) was 5, the “2) Mouse performance B2” value (Balb/c mice; [8]) was 3 and the “2) Mouse performance B3” value (Balb/c mice; [8]) was 0. The “3) Timing-sequence response and specificity C” value (Balb/c mice; [8]) was 1, the “3) Timing-sequence response and specificity C1” value (Balb/c mice; [8]) was 100 and the “3) Timing-sequence response and specificity C2” value (Balb/c mice; [8]) was 1244. For the same sequence, the “3) Timing-sequence response and specificity C3” value (Balb/c mice; [8]) was 3, the “3) Timing-sequence response and specificity C4” value (Balb/c mice; [8]) was 0.241 and the Total single peptide (Balb/c mice; [8]) was 19.7. The “1) 95 percentile grouping number A” value (Balb/c mice; [9]) was 5, the “1) 95 percentile grouping number A1” value (Balb/c mice; [9]) was 0.115 and the “2) Mouse performance B” value (Balb/c mice; [9]) was 2.5. For the same sequence, the “2) Mouse performance B1” value (Balb/c mice; [9]) was 5, the “2) Mouse performance B2” value (Balb/c mice; [9]) was 5 and the “2) Mouse performance B3” value (Balb/c mice; [9]) was 0. For the same sequence, the “3) Timing-sequence response and specificity C” value (Balb/c mice; [9]) was 1, the “3) Timing-sequence response and specificity C1” value (Balb/c mice; [9]) was 260 and the “3) Timing-sequence response and specificity C2” value (Balb/c mice; [9]) was 1244. The “3) Timing-sequence response and specificity C3” value (Balb/c mice; [9]) was 3, the “3) Timing-sequence response and specificity C4” value (Balb/c mice; [9]) was 0.241 and the Total single peptide (Balb/c mice; [9]) was 20.5. The “1) 95 percentile grouping number A” value (Balb/c mice; [10]) was 5, the “1) 95 percentile grouping number A1” value (Balb/c mice; [10]) was 0.095 and the “2) Mouse performance B” value (Balb/c mice; [10]) was 4.2. For the same sequence, the “2) Mouse performance B1” value (Balb/c mice; [10]) was 4, the “2) Mouse performance B2” value (Balb/c mice; [10]) was 5 and the “2) Mouse performance B3” value (Balb/c mice; [10]) was 5. The “3) Timing-sequence response and specificity C” value (Balb/c mice; [10]) was 0, the “3) Timing-sequence response and specificity C1” value (Balb/c mice; [10]) was 153 and the “3) Timing-sequence response and specificity C2” value (Balb/c mice; [10]) was 1244. For the same sequence, the “3) Timing-sequence response and specificity C3” value (Balb/c mice; [10]) was 0, the “3) Timing-sequence response and specificity C4” value (Balb/c mice; [10]) was 0.000 and the Total single peptide (Balb/c mice; [10]) was 23.4.
